Test results published in US12331046B2, “CTPS1 inhibitors and uses thereof” (Nimbus Clotho, Inc., priority 2020, dated 2025).

Molecular target: human CTPS1 (Homo sapiens (Human), UniProt P17812)
Assay: hCTPS1 biochemical assay (ADP-Glo)
Conditions: hCTPS1 25 nM, ATP 120 uM, UTP 160 uM, GTP 60 uM, L-Glutamine 100 uM, 25 degrees C

Sequence of human CTPS1 (P17812 whole entry): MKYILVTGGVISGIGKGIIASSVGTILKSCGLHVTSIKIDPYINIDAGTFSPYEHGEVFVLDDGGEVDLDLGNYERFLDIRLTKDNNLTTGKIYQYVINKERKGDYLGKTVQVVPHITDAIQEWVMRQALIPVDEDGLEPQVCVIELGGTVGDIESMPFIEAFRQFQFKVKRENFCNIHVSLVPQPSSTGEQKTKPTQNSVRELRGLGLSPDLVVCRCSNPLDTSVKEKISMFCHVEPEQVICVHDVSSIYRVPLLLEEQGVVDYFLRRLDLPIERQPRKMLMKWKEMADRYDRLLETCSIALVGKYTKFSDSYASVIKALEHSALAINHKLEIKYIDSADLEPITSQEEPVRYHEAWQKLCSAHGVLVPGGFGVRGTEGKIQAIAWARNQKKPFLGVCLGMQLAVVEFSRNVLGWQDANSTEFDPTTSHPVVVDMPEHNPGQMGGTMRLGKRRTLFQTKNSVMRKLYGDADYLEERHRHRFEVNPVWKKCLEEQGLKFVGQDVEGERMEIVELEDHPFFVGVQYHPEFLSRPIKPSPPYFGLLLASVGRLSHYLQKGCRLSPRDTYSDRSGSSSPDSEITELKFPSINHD

Structure (SMILES) | IC50 [nM]
CCOc1cncc(-c2ccc(C(=O)NCc3nsc(NS(=O)(=O)C4CC4)n3)cc2)n1 [I-48, N-((5-(cyclopropanesulfonamido)-1,2,4-thiadiazol-3-yl)methyl)-4-(6-ethoxypyrazin-2-yl)benzamide] | < 100
CCOc1cncc(-c2cnc(C(=O)N[C@H](CCN3CC[C@H](F)C3)c3cc(NS(=O)(=O)C4CC4)ccn3)s2)n1 [I-126, N—((R)-1-(4-(cyclopropanesulfonamido)pyridin-2-yl)-3-((S)-3-fluoropyrrolidin-1-yl)propyl)-5-(6-ethoxypyrazin-2-yl)thiazole-2-carboxamide] | < 100
CCOc1cncc(-c2cnc(C(=O)N[C@@H](CN3C[C@H]4C[C@@H]3CO4)c3cc(NS(=O)(=O)C4CC4)ccn3)s2)n1 [I-113, N—((S)-2-((1R,4R)-2-oxa-5-azabicyclo[2.2.1]heptan-5-yl)-1-(4-(cyclopropanesulfonamido)pyridin-2-yl)ethyl)-5-(6-ethoxypyrazin-2-yl)thiazole-2-carboxamide] | < 100
Cc1cn(-c2ccc(C(=O)NC3(c4csc(NS(=O)(=O)C5CC5)n4)CC3)nc2)cn1 [I-8, N-(1-(2-(cyclopropanesulfonamido)thiazol-4-yl)cyclopropyl)-5-(4-methyl-1H-imidazol-1-yl)picolinamide] | ≥ 1000
CCOc1cncc(-c2cnc(C(=O)NC(CCN(C)C)c3c(F)ccc(NS(=O)(=O)C4CC4)c3F)s2)n1 (stereo not drawn) [I-123, N-[1-(3-cyclopropanesulfonamido-2,6-difluorophenyl)-3-(dimethylamino)propyl]-5-(6-ethoxypyrazin-2-yl)-1,3-thiazole-2-carboxamide] | ≥ 1000
CC(C)Oc1cncc(-c2ccc(C(=O)NCc3cc(NS(=O)(=O)C4CC4)ccn3)cc2)n1 [I-33] | < 100
CCOc1cncc(-c2cnc(C(=O)NC(c3cc(NS(=O)(=O)C4CC4)ccn3)C3CCNCC3)s2)n1 (stereo not drawn) [I-153, N-((4-(cyclopropanesulfonamido)pyridin-2-yl)(piperidin-4-yl)methyl)-5-(6-ethoxypyrazin-2-yl)thiazole-2-carboxamide] | < 100
CCOc1cncc(-c2cnc(C(=O)N[C@H](CCN(C)C)c3c(F)ccc(NS(=O)(=O)C4CC4)c3F)s2)n1 (single isomer, unassigned) [I-124] | ≥ 1000
CCOc1cncc(-c2ccc(C(=O)NC3(c4cccc5c4ccn5S(=O)(=O)C4CC4)CC3)nc2)n1 [I-20, N-(1-(1-(cyclopropylsulfonyl)-1H-indol-4-yl)cyclopropyl)-5-(6-ethoxypyrazin-2-yl)picolinamide] | ≥ 1000
O=C(c1ncc(-c2cnc3[nH]cc(CC(F)F)c3n2)s1)N1CCCC1c1ccnc(NS(=O)(=O)C2CC2)n1 (stereo not drawn) [I-137, N-[4-(1-{5-[7-(2,2-difluoroethyl)-5H-pyrrolo[2,3-b]pyrazin-2-yl]-1,3-thiazole-2-carbonyl}pyrrolidin-2-yl)pyrimidin-2-yl] cyclopropanesulfonamide] | < 100
CCOc1cncc(-c2cnc(C(=O)N[C@](C)(CCOC)c3cc(NS(=O)(=O)C4CC4)ccn3)s2)n1 [I-157, (R)—N-(2-(4-(cyclopropanesulfonamido)pyridin-2-yl)-4-methoxybutan-2-yl)-5-(6-ethoxypyrazin-2-yl)thiazole-2-carboxamide] | 100 to 1000
CCOc1cncc(-c2ccc(C(=O)N[C@@H](CC)c3cc(NS(=O)(=O)C4CC4)ccn3)c(F)c2)n1 [I-73] | < 100
CCOc1cncc(-c2ccc(C(=O)N3CCC[C@@H]3c3cc(NS(=O)(=O)C4CC4)ccn3)c(F)c2)n1 [I-75, N-[2-[(2R)-1-[4-(6-ethoxypyrazin-2-yl)-2-fluorobenzoyl]pyrrolidin-2-yl]pyridin-4-yl]cyclopropanesulfonamide] | 100 to 1000
CCOc1cncc(-c2cnc(C(=O)NC(CCN3CCCCC3)c3cc(NS(=O)(=O)C4CC4)ccn3)s2)n1 (stereo not drawn) [I-176, N-(1-(4-(cyclopropanesulfonamido)pyridin-2-yl)-3-(piperidin-1-yl)propyl)-5-(6-ethoxypyrazin-2-yl)thiazole-2-carboxamide] | < 100
CCOc1cncc(-c2ncc(C(=O)NCc3cc(NS(=O)(=O)C4CC4)ccn3)o2)n1 [I-44] | ≥ 1000
CCOc1cncc(-c2ccc3c(c2)CN(C2(c4csc(NS(=O)(=O)C5CC5)n4)CC2)C3=O)n1 [I-13, N-(4-(1-(5-(6-ethoxypyrazin-2-yl)-1-oxoisoindolin-2-yl)cyclopropyl)thiazol-2-yl)cyclopropanesulfonamide] | 100 to 1000
CCOc1cncc(-c2cnc(C(=O)N[C@@H](CN3CCCC3)c3cc(NS(=O)(=O)C4CC4)ccn3)s2)n1 [I-198, (S)—N-(1-(4-(cyclopropanesulfonamido)pyridin-2-yl)-2-(pyrrolidin-1-yl)ethyl)-5-(6-ethoxypyrazin-2-yl)thiazole-2-carboxamide] | < 100
O=C(NCc1cc(NS(=O)(=O)C2CC2)ccn1)c1ncc(-c2cncc(OCC(F)(F)F)n2)s1 [I-243] | < 100
CCOc1cncc(-c2cnc(C(=O)N[C@@H](CC)c3cc(NS(=O)(=O)C4CC4)ccn3)s2)n1 [I-278] | < 100
CCOc1cncc(-c2cnc(C(=O)N[C@H](CN3CCC3)c3cc(NS(=O)(=O)C4CC4)ccn3)s2)n1 (single isomer, unassigned) [I-222] | < 100
CCOc1cncc(-c2ccc(C(=O)NCc3cc(NS(=O)(=O)C4CC4)ncn3)cc2)n1 [I-29, N-((6-(cyclopropanesulfonamido)pyrimidin-4-yl)methyl)-4-(6-ethoxypyrazin-2-yl)benzamide] | < 100

Structure (SMILES) | IC50 [nM]
CCOc1cncc(-c2cnc(C(=O)N[C@H](CN3CCN(C)CC3)c3cc(NS(=O)(=O)C4CC4)ccn3)s2)n1 (single isomer, unassigned) [I-192] | < 100
O=C(NCc1cc(NS(=O)(=O)C2CC2)ccn1)c1ncc(-c2cnn3cccc3c2)s1 [I-200, N-((4-(cyclopropanesulfonamido)pyridin-2-yl)methyl)-5-(pyrrolo[1,2-b]pyridazin-3-yl)thiazole-2-carboxamide] | 100 to 1000
CCOc1cncc(-c2ccc(C(=O)NCc3cc(NS(=O)(=O)C(F)F)ccn3)nc2)n1 [I-30, N-[[4-(difluoromethanesulfonamido)pyridin-2-yl]methyl]-5-(6-ethoxypyrazin-2-yl) pyridine-2-carboxamide] | < 100
O=C(NC1(c2csc(NS(=O)(=O)C3CC3)n2)CC1)c1ccc2cccnc2c1 [I-10, N-(1-(2-(cyclopropanesulfonamido)thiazol-4-yl)cyclopropyl)quinoline-7-carboxamide] | ≥ 1000
CCOc1cncc(-c2cnc(C(=O)N[C@@H](CCN3CC[C@@H](F)C3)c3cc(NS(=O)(=O)C4CC4)ccn3)s2)n1 [I-128, N—((S)-1-(4-(cyclopropanesulfonamido)pyridin-2-yl)-3-((R)-3-fluoropyrrolidin-1-yl)propyl)-5-(6-ethoxypyrazin-2-yl)thiazole-2-carboxamide] | < 100
CCOc1cncc(-c2cnc(C(=O)N[C@H](C)c3cccc(NS(=O)(=O)C(F)F)c3)s2)n1 [I-272, N-[(1R)-1-[3-(difluoromethanesulfonamido)phenyl]ethyl]-5-(6-ethoxypyrazin-2-yl)-1,3-thiazole-2-carboxamide] | < 100
CCOc1cncc(-c2cnc(C(=O)NC(CN3CCOCC3(C)C)c3cc(NS(=O)(=O)C4CC4)ccn3)s2)n1 (stereo not drawn) [I-122] | < 100
CCOc1cncc(-c2cnc(C(=O)N[C@H](CN3CCOCC3)c3cc(NS(=O)(=O)C4CC4)ccn3)s2)n1 (single isomer, unassigned) [I-236] | < 100
CCOc1cncc(-c2cnc(C(=O)N[C@H](CC)c3cc(NS(=O)(=O)C4CC4)ccn3)s2)n1 [I-277] | < 100
CCOc1cncc(-c2cnc(C(=O)NC(CN3CC(F)C3)c3cc(NS(=O)(=O)C4CC4)ccn3)s2)n1 (stereo not drawn) [I-216] | < 100
Cc1cc2c(=O)[nH]c3ccc(C(=O)NCc4cc(NS(=O)(=O)C5CC5)ccn4)cc3n2c1 [I-162] | 100 to 1000
CCOc1cncc(-c2cnc(C(=O)NCc3cc(F)cc(NS(=O)(=O)C4CC4)c3F)s2)n1 [I-250, N-[(3-cyclopropanesulfonamido-2,5-difluorophenyl)methyl]-5-(6-ethoxypyrazin-2-yl)-1,3-thiazole-2-carboxamide] | < 100
CCOc1cncc(-c2cnc(C(=O)NC(C)(CCOC)c3cc(NS(=O)(=O)C4CC4)ccn3)s2)n1 (stereo not drawn) [I-178] | 100 to 1000
CCOc1cncc(-c2cnc(C(=O)N[C@@H](CN(C)C)c3cc(NS(=O)(=O)C4CC4)ccn3)s2)n1 (single isomer, unassigned) [I-234] | < 100
CCOc1cncc(-c2cnc(C(=O)N[C@@H](C[C@H]3CCCCN3C)c3cc(NS(=O)(=O)C4CC4)ccn3)s2)n1 [I-142, N—((S)-1-(4-(cyclopropanesulfonamido)pyridin-2-yl)-2-((R)-1-methylpiperidin-2-yl)ethyl)-5-(6-ethoxypyrazin-2-yl)thiazole-2-carboxamide] | < 100
CCOc1cncc(-c2cnc(C(=O)NC(CCN3CCC3)c3cc(NS(=O)(=O)C4CC4)ccn3)s2)n1 (stereo not drawn) [I-182, N-(3-(azetidin-1-yl)-1-(4-(cyclopropanesulfonamido)pyridin-2-yl)propyl)-5-(6-ethoxypyrazin-2-yl)thiazole-2-carboxamide] | ≥ 1000
Cc1nc(C(=O)NCc2cc(NS(=O)(=O)C3CC3)ccn2)cnc1N1CCC12CCCCC2 [I-279] | < 100
CCOc1cncc(-c2cnc(C(=O)N[C@H](CCOC)c3cc(NS(=O)(=O)C4CC4)ccn3)s2)n1 [I-184, (R)—N-(1-(4-(cyclopropanesulfonamido)pyridin-2-yl)-3-methoxypropyl)-5-(6-ethoxypyrazin-2-yl)thiazole-2-carboxamide] | < 100
CCOc1cncc(-c2ccc(C(=O)NCc3cc(NS(=O)(=O)C4CC4)ccn3)cc2)n1 [I-15, N-((4-(cyclopropanesulfonamido)pyridin-2-yl)methyl)-4-(6-ethoxypyrazin-2-yl) benzamide] | < 100
CCOc1cncc(-c2ccc(C(=O)NCc3cc(NS(=O)(=O)C4CC4)ccn3)c(F)c2)n1 [I-25] | < 100
CCOc1cncc(-c2cnc(C(=O)N[C@H](CCN3CCCCC3)c3cc(NS(=O)(=O)C4CC4)ccn3)s2)n1 [I-160, (R)—N-(1-(4-(cyclopropanesulfonamido)pyridin-2-yl)-3-(piperidin-1-yl)propyl)-5-(6-ethoxypyrazin-2-yl)thiazole-2-carboxamide] | 100 to 1000
